In patent publication US9358281B2, “Methods, agents and peptides for inducing an innate immune response in HIV vaccination” (New York University, priority 2009, dated 2016):

System: monocyte-derived dendritic cells (MDDC)
Format: cell-based, human
Conditions: added during the first 24 hours

SMILES	effect on transduction efficiency
Cc1nnc(C(=O)NC(C)(C)c2nc(C(=O)NCc3ccc(F)cc3)c(O)c(=O)n2C)o1 [RAL, Raltegravir]	inhibited transduction efficiency
Cc1cn([C@H]2C[C@H](N=[N+]=[N-])[C@@H](CO)O2)c(=O)[nH]c1=O [AZT, Zidovudine]	inhibited transduction efficiency
